# Experimental data as given in US20160220569A1, “CDK4/6 Inhibitor Dosage Formulations For The Protection Of Hematopoietic Stem And Progenitor Cells During Chemotherapy” (G1 Therapeutics, Inc., priority 2015, published 2016).
# Where two headings read alike, the source gives them in different places.
# Test: 14-day oral gavage toxicokinetic study in rats
# Assay type: in vivo
# Settings: both sexes, rat, plasma, po; for concentration at 0.5 h / concentration at 1 h / concentration at 2 h / concentration at 4 h / concentration at 8 h / concentration at 12 h / concentration at 24 h: Mean Compound 1 Plasma Concentration, rats, Overall; for half-life: read-out: t½ (converted)
# Procedure: Plasma was obtained from blood samples collected from rats in a composite sampling scheme, with 3 samples collected per sex, per dose, at each target collection time, as illustrated in Table 21 to Table 25. Samples were collected from the vehicle control group on Day 1 and Day 14 at 3 hour after administration. […] Blood samples were collected in tubes containing K3EDTA as an anticoagulant and placed on ice until processed to plasma via centrifugation. Samples were stored frozen at −80° C. until shipment to the bioanalytical laboratory for analysis.
# The following parameters were determined:
# Cmax: Maximum observed plasma concentration (ng/mL).
# A value of 0 ng/mL was assigned to all values below the lower limit of quantitation (BLQ, <10.0 ng/mL).
# AUC(0-inf): Area under the plasma concentration vs. time curve extrapolated from 0 to infinity (ng*h/mL), calculated as AUC(0-t)+AUC(t-inf) where AUC(t-inf) is calculated as last measurable concentration (CLast) divided by ke, where ke is the elimination rate constant determined by linear regression of the last three analytically measured points on the log plasma concentration vs. time curve. The selection criteria of the data points for inclusion in the calculation of ke required that at least three data points representing the terminal phase (after Tmax) were regressed and that R2≧0.850 when rounded.
# CL: Clearance (L/h/kg), calculated as the dose divided by AUC(0-t).
# Vd: Volume of distribution (L/kg), calculated as dose divided by the product of ke and AUC(0-inf).
# Vdss: Steady state volume of distribution (L/kg), calculated as clearance […] mean residence time, where mean residence time is calculated as the area under the first moment curve divided by AUC(0-t).
# t½: Elimination half-life (h), calculated as ln(2)/ke, where ke is the elimination rate constant determined by linear regression. Half-life was defined as not determined if regression criteria (specified in AUC(0-inf) above) were not met.
# Cmax/Dose: Normalized Cmax, calculated as Cmax divided by total dose.
# AUC/Dose: Normalized AUC, calculated as AUC(0-t) divided by total dose.
# ii. Statistical Analysis Mean and standard deviation (SD) were calculated in Watson. Values of BLQ were assigned a value of 0 ng/mL for mean calculations. Concentration values and derived TK parameters were reported to three significant figures.
# [1] = 2 mg/kg, oral 2 mg/kg, Study Day 1, Overall
# [2] = 2 mg/kg, oral 2 mg/kg, Study Day 14, Overall
# [3] = 5 mg/kg, oral 5 mg/kg, Study Day 1, Overall
# [4] = 5 mg/kg, oral 5 mg/kg, Study Day 14, Overall
structure (smiles),measurement,setting,value
"CN1CCN(c2ccc(Nc3ncc4cc5n(c4n3)C3(CCCCC3)CNC5=O)nc2)CC1 [Compound 1, 2′-((5-(4-methylpiperazin-1-yl)pyridin-2-yl)amino)-7′,8′-dihydro-6′H-spiro[cyclohexane-1,9′-pyrazino[1′,2′:1,5]pyrrolo[2,3-d]pyrimidin]-6′-one]",concentration at 0.5 h,"2 mg/kg, oral 2 mg/kg, Day 1, 0.5 h",83.7 ng/mL
same,concentration at 1 h,"2 mg/kg, oral 2 mg/kg, Day 1, 1 h",74.3 ng/mL
same,concentration at 2 h,"2 mg/kg, oral 2 mg/kg, Day 1, 2 h",149 ng/mL
same,concentration at 4 h,"2 mg/kg, oral 2 mg/kg, Day 1, 4 h",150 ng/mL
same,concentration at 8 h,"2 mg/kg, oral 2 mg/kg, Day 1, 8 h",93.6 ng/mL
same,concentration at 12 h,"2 mg/kg, oral 2 mg/kg, Day 1, 12 h",67.9 ng/mL
same,concentration at 24 h,"2 mg/kg, oral 2 mg/kg, Day 1, 24 h",6.5 ng/mL
same,concentration at 0.5 h,"2 mg/kg, oral 2 mg/kg, Day 14, 0.5 h",88.2 ng/mL
same,concentration at 1 h,"2 mg/kg, oral 2 mg/kg, Day 14, 1 h",78.5 ng/mL
same,concentration at 2 h,"2 mg/kg, oral 2 mg/kg, Day 14, 2 h",142 ng/mL
same,concentration at 4 h,"2 mg/kg, oral 2 mg/kg, Day 14, 4 h",119 ng/mL
same,concentration at 8 h,"2 mg/kg, oral 2 mg/kg, Day 14, 8 h",103 ng/mL
same,concentration at 12 h,"2 mg/kg, oral 2 mg/kg, Day 14, 12 h",51.9 ng/mL
same,concentration at 24 h,"2 mg/kg, oral 2 mg/kg, Day 14, 24 h",4.32 ng/mL
same,AUC(0-inf),[1],1770 ng·h/mL
same,AUC(0-t),[1],1730 ng·h/mL
same,Cmax,[1],150 ng/mL
same,Tmax,[1],4 h
same,half-life,[1],4 h
same,AUC(0-inf),[2],1550 ng·h/mL
same,AUC(0-t),[2],1530 ng·h/mL
same,Cmax,[2],142 ng/mL
same,Tmax,[2],2 h
same,half-life,[2],3.46 h
same,concentration at 0.5 h,"5 mg/kg, oral 5 mg/kg, Day 1, 0.5 h",252 ng/mL
same,concentration at 1 h,"5 mg/kg, oral 5 mg/kg, Day 1, 1 h",300 ng/mL
same,concentration at 2 h,"5 mg/kg, oral 5 mg/kg, Day 1, 2 h",391 ng/mL
same,concentration at 4 h,"5 mg/kg, oral 5 mg/kg, Day 1, 4 h",445 ng/mL
same,concentration at 8 h,"5 mg/kg, oral 5 mg/kg, Day 1, 8 h",318 ng/mL
same,concentration at 12 h,"5 mg/kg, oral 5 mg/kg, Day 1, 12 h",168 ng/mL
same,concentration at 24 h,"5 mg/kg, oral 5 mg/kg, Day 1, 24 h",22.1 ng/mL
same,concentration at 0.5 h,"5 mg/kg, oral 5 mg/kg, Day 14, 0.5 h",348 ng/mL
same,concentration at 1 h,"5 mg/kg, oral 5 mg/kg, Day 14, 1 h",389 ng/mL
same,concentration at 2 h,"5 mg/kg, oral 5 mg/kg, Day 14, 2 h",470 ng/mL
same,concentration at 4 h,"5 mg/kg, oral 5 mg/kg, Day 14, 4 h",430 ng/mL
same,concentration at 8 h,"5 mg/kg, oral 5 mg/kg, Day 14, 8 h",262 ng/mL
same,concentration at 12 h,"5 mg/kg, oral 5 mg/kg, Day 14, 12 h",151 ng/mL
same,concentration at 24 h,"5 mg/kg, oral 5 mg/kg, Day 14, 24 h",18 ng/mL
same,AUC(0-inf),[3],5150 ng·h/mL
same,AUC(0-t),[3],5020 ng·h/mL
same,Cmax,[3],445 ng/mL
same,Tmax,[3],4 h
same,half-life,[3],4.14 h
same,AUC(0-inf),[4],4930 ng·h/mL
same,AUC(0-t),[4],4820 ng·h/mL
same,Cmax,[4],470 ng/mL
same,Tmax,[4],2 h
same,half-life,[4],4.08 h
same,concentration at 0.5 h,"15 mg/kg, oral 15 mg/kg, Day 1, 0.5 h",899 ng/mL
same,concentration at 1 h,"15 mg/kg, oral 15 mg/kg, Day 1, 1 h",1170 ng/mL
same,concentration at 2 h,"15 mg/kg, oral 15 mg/kg, Day 1, 2 h",1490 ng/mL
same,concentration at 4 h,"15 mg/kg, oral 15 mg/kg, Day 1, 4 h",1430 ng/mL
same,concentration at 8 h,"15 mg/kg, oral 15 mg/kg, Day 1, 8 h",1230 ng/mL
same,concentration at 12 h,"15 mg/kg, oral 15 mg/kg, Day 1, 12 h",767 ng/mL
same,concentration at 24 h,"15 mg/kg, oral 15 mg/kg, Day 1, 24 h",84.5 ng/mL
